Patent US8895032B2, “Dendritic nano-antioxidants” (Central Michigan University, priority 2009, dated 2014)

Tests used:
DPPH radical assay = test: DPPH radical assay
Description: The DPPH assay was one of three electron transfer (ET) assays used to determine the antioxidant potential of compound 1 (described in Example 6) in comparison to its monomeric counterpart (syringaldehyde) as well as popular antioxidants. In an ET assay, an antioxidant donates electron(s) to a molecular probe, thus reducing it. From the assay, thermodynamic conversion of antioxidant to antioxidant radical (oxidation) is measured during a fixed time period.
The reduction of DPPH radical was determined for ascorbic acid, Trolox, syringaldehyde, and the compound 1 described in Example 6 as previously reported (Brand-Williams, et al. Lebensm.-Wiss U.-Technol. 1995, 28, 25-30, incorporated herein by reference in its entirety). In the DPPH assay, DPPH• radical was reduced by the antioxidant in methanol (Brand-Williams, et al. Lebensm.-Wiss U.-Technol. 1995, 28, 25-30, incorporated herein by reference in its entirety). […] The DPPH reagent was made in methanol. Antioxidant sample (10 μL) was added to 1.0 mL of reagent and the absorbance was monitored at 515 nm until a plateau was reached. Antioxidant concentrations were 50 μM syringaldehyde, 12.5 μM Trolox and ascorbic acid, and 5 μM compound 1. All samples were made in methanol and run in triplicates at room temperature.
The DPPH• scavenging capacity of each antioxidant was evaluated from the plot of the percentage DPPH• remaining when the kinetics reached a steady state as a function of the molar ratios of antioxidant to DPPH•. […] Using the curve, EC50 (the amount of antioxidant necessary to decrease the initial DPPH• concentration by 50%), antiradical power (1/EC50, ability to reduce the DPPH•), reaction stoichiometry (EC50×2, the concentration of antioxidant required to reduce 100% of DPPH• radical), and the number of reduced DPPH• per antioxidant molecule (1/stoichiometry) for each antioxidant were calculated as previously described (Brand-Williams, et al. Lebensm.-Wiss U.-Technol. 1995, 28, 25-30, incorporated herein by reference in its entirety) and are depicted in Table 1.
Antioxidant capacity of the compounds was assessed by the DPPH assay (Brand-Williams, et al. Lebensm. Wiss. Technol. 1995, 28, 25, incorporated herein by reference in its entirety). […] In FIG. 22, control with methanol is (X, dashed); compound 1 is (□), compound 2 is (•), compound 3 is (◯), and Trolox (Δ). All antioxidant concentrations were 5 μM.
The free-radical scavenging ability of the antioxidants was evaluated by the DPPH assay, as described above in Example 7.

[1] = system: Chinese hamster ovary (CHO-K1) cells; test: Cell toxicity, MTT; assay type: cell-based; conditions: 3.1-50 μM, over 5 days
Description: Data on cell toxicity of compound 4 and compound 5 were obtained with Chinese hamster ovary (CHO) cells using 3-(4,5-di-methylthizol-2-yl)-2,5 diphenyltetrazolium bromide (MTT). Chinese Hamster Ovary (CHO-K1) cells were cultured in F-12K medium supplemented with 10% fetal bovine serum. The cells (3×10^5/ml) were seeded in 100 μL volumes in 96 well culture plates and incubated with the solvent control (DMSO, 0.3%), compound 4 or compound 5 at 3.1, 6.2, 12.5, 25, or 50 μM for 1, 3, or 5 days. Two hours prior to experimental termination, 20 μL of a 5 mg/mL MTT solution in 0.01 M PBS was added to each well. Plates were centrifuged at 450×g for 10 min and supernatant was removed. The resultant formazan crystals were dissolved in 100 μL DMSO and mixed. Absorbance was measured using a Biolog microplate reader (Biotek Instruments) at dual wavelengths, 590 and 650 nm. Percent control response was calculated as follows: (absorbance of treatment/absorbance of control)×100. All experiments were performed in triplicate and repeated. The data were analyzed using Systat 12 for windows. Multiple groups were compared using a one-way analysis of variance (ANOVA) and a Tukey test for mean separation. A p value<0.05 was considered statistically significant.

Human LDL = test: Protection of LDL from AAPH oxidation (agarose gel electrophoresis); assay type: biochemical; conditions: 21 h, 37° C.
Excerpt: The antioxidant activity of compounds 1, 2, and 3 towards biomolecules was examined by studying their ability to protect LDL, fatty acid, and DNA from free radicals. For LDL, AAPH was used to induce free radical damage. AAPH was used instead of copper (Cu^2) ion for LDL oxidation so that the free radical scavenging activity of the antioxidants could be measured without any pro-oxidant interference caused by metal ions (Salah, N. et al. Arch. Biochem. Biophys. 1995, 322, 339, incorporated herein by reference in its entirety). All solutions were made in ultra-pure water.
Protection of LDL from AAPH free radicals by the antioxidant decreased the anodic shift in a dose-dependent manner (FIG. 23). […] The increased hydrophobicity of compound 3 may be partly responsible for its improved LDL protection over compound 2.
The antioxidant activity of the antioxidants towards biomolecules was examined by studying their ability to protect LDL, lysozyme, and DNA from free radicals. For LDL, AAPH was used to induce free radical damage. AAPH was used instead of Cu^2+ for LDL oxidation so that the free radical scavenging activity of the antioxidants could be measured without any pro-oxidant interference caused by metal ions. The oxidation of human low-density lipoprotein was used as a model for evaluating the ability of the G1 dendrimers as chain-breaking antioxidants for lipid. Oxidation of LDL leads to changes in both the lipid and the protein moieties of the lipoprotein particle. Lipid peroxidation in LDL has been evaluated by a variety of methods. Due to the complexity of events that occur in lipoprotein oxidation, the electrophoretic migration pattern of oxidized LDL is one of the best methods to evaluate the extent of lipoprotein oxidation. LDL was incubated with 20 mM AAPH and increasing concentrations of the G1 dendrimers (0-37 μM in PBS) for 21 h at 37° C. The mixture was then subjected to agarose gel electrophoresis using the Ciba Corning Clinical Electrophoresis System. The agarose gel was stained with Fat Red 7B. In FIG. 30A (top), lane 1 is native LDL, and lanes 2-8 are AAPH-oxidized LDL with 0, 37, 18.5, 9, 4.5, 2 and 1 μM compound 4, respectively. In FIG. 30B (bottom), lane 1 is native LDL, and lanes 2-8 are AAPH-oxidized LDL with 0, 37, 18.5, 9, 4.5, 2 and 1 μM quercetin or Trolox, respectively.

plasmid DNA pBR 322 = test: Protection of plasmid DNA from AAPH damage (agarose electrophoresis); assay type: biochemical; conditions: 10 mM AAPH, 37° C., 4 h
Description: The effectiveness of the three compounds to protect DNA from AAPH damage was also determined. The plasmid DNA pBR 322 was incubated with AAPH (final concentration 10 mM) at 37° C. for 4 h with or without antioxidants (final concentrations, 0.35-45 μM), after which the samples were subjected to agarose electrophoresis (Sakihama, Y., et al. Toxicology 2002, 177, 67, incorporated herein by reference in its entirety). […] In the absence of AAPH, pBR 322 was mostly in its supercoiled (S) form (small amount of open circular, O, form was also visible, lane 1 FIG. 25). After reaction with AAPH, the DNA was transformed almost entirely into its open circular form (lane 2, FIG. 25). […] No protection was obtained for both compound 1 and quercetin below 5 μM (lanes 7-10, FIG. 25). […] Compound 3 as well as Trolox were ineffective at all concentrations used in the experiment (0.35-45 μM).
Protection of DNA from free radical damage by the antioxidant dendrimers (compounds 4, 5, and 1) was also evaluated. Plasmid DNA (pBR 322) samples, were incubated with AAPH (final concentration 10 mM) at 37° C. for 4 h with antioxidants (final concentrations, 0.35-45 μM) and subjected to agarose electrophoresis. […] The native DNA was mostly in its supercoiled (S) form (small amount of open circular, O, form was also visible, lane 1, FIG. 31). In the presence of AAPH, the DNA was transformed almost entirely into its O form (lane 2, FIG. 31). […] Negligible DNA protection was afforded by all three dendrimers at ≦2.5 μM (lanes 7-10, FIG. 31). Under similar conditions, Trolox as well as the starting materials for dendrimer synthesis were ineffective at all concentrations.

[2] = Brand-Williams et al.; cited from earlier work
[3] = ABTS radical cation decolorization assay; assay type: biochemical
Excerpt: We have tested AO activity of G1 (13) using ABTS as a radical source using a previously reported spectroscopic assay. The AO activity of the G1 (13) was compared to those of syringaldehyde, gallic acid, and vitamin C. If the phenolic OH group is the radical scavenging site, the expected AO activity of the G1 (13) should be 4 fold higher than that of syringaldehyde and 1.3 fold higher than that of gallic acid (which has three phenolic OH groups).
ABTS radical cation decolorization assay was used as previously described (Ozgen, et al. J. Agric. Food Chem. 2006, 54, 1151-1157, incorporated herein by reference in its entirety). Like the DPPH assay, this was also a decolorization assay and measured absorbance decrease at 734 nm as the ABTS radical (ABTS•+) is quenched by the antioxidant. The solvent used for the assay was ethanol. ABTS reagent was added to 1.0 mL solvent in a cuvet to bring the absorbance to 0.7. A 10 μL sample of antioxidant was then added, mixed, and the absorbance monitored at 734 nm for 6 min. Antioxidant concentrations were 14.4 μM Trolox, 11.4 μM ascorbic acid, 15.4 μM syringaldehyde, and 3 μM compound 1. The % decrease in absorbance at 6 min was plotted against antioxidant concentrations. The gradient of the line obtained by linear regression for a given antioxidant was divided by that obtained for Trolox to yield Trolox equivalent antioxidant (TEAC) values. All samples were made in ethanol and run in triplicates and at room temperature.

[4] = FRAP assay (reduction of Fe(III) to Fe(II)); assay type: biochemical; set-up: Slope of ΔA593 versus concentration: unit not given here; conditions: for Slope of ΔA593 versus concentration: 37° C.
Description: The FRAP assay was performed as previously described (Pulido, et al. J. Agric. Food Chem. 2000, 48, 3396-3402, incorporated herein by reference in its entirety). In the FRAP assay, ferric was reduced by the antioxidant to ferrous via electron transfer (Benzie et al., Anal. Biochem. 1996, 239, 70-76, incorporated herein by reference in its entirety). This assay measured the redox potential of an antioxidant which is used as an estimate of antioxidant efficiency and expressed as a FRAP value. […] The compound 1 as well as the other antioxidants was dissolved in methanol. […] Reaction kinetics of the compound 1 and other antioxidants were obtained by plotting the change in slopes at various times and are shown in FIG. 18. […] This time-dependent increase in absorbance was previously reported (Pulido, et al. J. Agric. Food Chem. 2000, 48, 3396-3402, incorporated herein by reference in its entirety) and was especially significant with polyphenolic compounds. […] However, the FRAP value increased with time, reaching 2.5 in 60 min. […] J. Agric. Food Chem. 2000, 48, 3396-3402, incorporated herein by reference in its entirety). […] EC1 values, and therefore ferric reducing ability, were lower at longer reaction times as expected from the kinetic behavior of the antioxidants (Pulido, et al. J. Agric. Food Chem. 2000, 48, 3396-3402, incorporated herein by reference in its entirety).

COc1cc(CN(CCN(CCN(Cc2cc(OC)c(O)c(OC)c2)Cc2cc(OC)c(O)c(OC)c2)CCN(Cc2cc(OC)c(O)c(OC)c2)Cc2cc(OC)c(O)c(OC)c2)Cc2cc(OC)c(O)c(OC)c2)cc(OC)c1O [Compound 4]
IC50 (DPPH radical assay; read-out: DPPH IC50 at 120 min, Example 15): 2 µM
CHO cell viability (MTT) [1]: did not show any reduction in cell viability
protection of LDL against free radical damage (Human LDL; 15 μM and 30 μM, 20 mM AAPH): fully protected
protection of LDL at lower concentrations (Human LDL; lanes 5-8, 20 mM AAPH): ineffective
DNA protection (plasmid DNA pBR 322; 5 μM antioxidant): Some protection
DNA protection (S band intensity) (plasmid DNA pBR 322; 11-45 μM antioxidant): well protected

O=C1O[C@H]([C@@H](O)CO)C(O)=C1O [Ascorbic acid, ascorbic acid]
# of DDPH• reduced per antioxidant molecule (1/stoichiometry) (DPPH radical assay): 1.8
Antioxidant Capacity Relative to Trolox, DPPH (DPPH radical assay): 1
ARP, previously reported value [2]: 3.70
Stoichiometry, previously reported value [2]: 0.54
number of reduced DPPH• per antioxidant molecule, previously reported value [2]: 1.85
Antioxidant Capacity Relative to Trolox, ABTS [3]: 0.90
time to reach a plateau of ABTS•+ absorbance suppression ([3]; 14.4 μM Trolox, 11.4 μM ascorbic acid): one
IC50 ([3]; final concentration in the cuvet, read-out: concentration at which 50% inhibition of ABTS•+ was observed): ~13 µM
Slope of % decrease in absorbance at 6 min versus antioxidant concentration ([3]; linear regression, concentration in μM): 3.6
TEAC ([3]; slope divided by that of Trolox, % decrease in A734 at 6 min, ethanol): 0.9
Antioxidant Capacity Relative to Trolox, FRAP 5 min ([4]; 5 min): 0.91
EC1 (concentration with ferric-TPTZ reducing ability equivalent to 1 mM FeSO4.7H2O) ([4]; 5 min): 505 µM
FRAP value relative to Fe(II) ([4]; 5 min, listed as Ascorbic Acid): 2.0
FRAP value relative to Fe(II) ([4]; 5 min, listed as ascorbic acid): ~2
FRAP value relative to Fe(II) ([4]; 15 min): 2.1
FRAP value relative to Fe(II) ([4]; 30 min): 2.3
Antioxidant Capacity Relative to Trolox, FRAP 60 min ([4]; 60 min): 1.1
EC1 (concentration with ferric-TPTZ reducing ability equivalent to 1 mM FeSO4.7H2O) ([4]; 60 min): 395 µM
FRAP value relative to Fe(II) ([4]; 60 min): 2.5
Slope of ΔA593 versus concentration ([4]; Reaction time 5 min): 0.0238
Slope of ΔA593 versus concentration ([4]; Reaction time 15 min): 0.0255
Slope of ΔA593 versus concentration ([4]; Reaction time 30 min): 0.0272
Slope of ΔA593 versus concentration ([4]; Reaction time 60 min): 0.0305
